{"source": "patent US8420145B2", "about": "“Isosorbide derivatives and their use as flavor modifiers, tastants, and taste enhancers” (Senomyx, Inc., priority 2008, dated 2013)", "key": {"[1]": {"assay": "Time-intensity testing: panelists rate umami intensity over 70 seconds", "format": "in vivo, human", "conditions": "for Average Intensity-at-Max (umami intensity): scale 0 to 100", "procedure": "Overview: Panelists Evaluate Various Solutions for Umami Intensity Over Time.\nGeneral procedure: Samples presented to panelists include various concentrations of MSG and compounds of interest. Samples may contain 0.1% ethanol to assist in dissolving compounds into solution. Samples are three-digit blind coded and served in 20 ml volumes. Samples are presented to panelists in randomized, counterbalanced order. All data is collected using the Compusense five software program. Umami intensity is rated on a scale from 0 to 100 (0=no umami intensity; 100=strong umami intensity). Panelists sip a sample and begin rating umami intensity. Panelists move the mouse on the horizontal scale to correspond to the umami intensity they perceive. Panelists continue rating the intensity for 70 seconds, and then expectorate the sample. The software program records an intensity score for each panelist for each 1 second period during the sample evaluation.\nAfter tasting each sample, panelists sip and swish water in the mouth for a few seconds and expectorate. They may repeat this several times. Panelists wait 30 minutes before tasting the next sample.\nData analysis: Time-intensity curves are created for each of the samples and various parameters of the test are compared statistically.\nTo create the graphical representation of the sample: For each of the 70 seconds of the evaluation, panelists individual scores are averaged and presented graphically. For example, each panelist's intensity score at time=0 seconds is averaged and plotted. The same calculation is made for each of the 70 seconds to create the time-intensity curve.\nTo evaluate the Time to Maximum Intensity parameter: A time-intensity curve is created for each panelist. […] The specific time scores for each panelist are averaged. Next, the average scores for the various samples are compared using ANOVA, and multiple comparisons are performed using Tukey's Honestly Significant Difference test at alpha=0.05."}, "un-induced I-17 cells": {"test_system": "un-induced I-17 cells", "assay": "FLIPR assay on un-induced I-17 cells (no mifepristone, receptor not expressed)", "format": "cell-based", "procedure": "In order to determine the dependency of hT1R1/hT1R3 for the cell response to different stimuli, selected compounds were subjected to a similar analysis on I-17 cells that had not been induced for receptor expression with mifepristone (designated as un-induced I-17 cells). […] Compounds were presented to un-induced umami cells at 10 μM-or three times the maximum stimulation used in the dose-response analysis."}, "[2]": {"conditions": "15 ppm (41.62 uM) in Low Sodium Buffer pH 7.1, n = 33"}, "[3]": {"conditions": "2.5 ppm (6.86 uM) in Low Sodium Buffer pH 7.1, n = 36"}, "[4]": {"conditions": "12 mM in Low Sodium Buffer pH 7.1, n = 33"}, "[5]": {"conditions": "12 mM in Low Sodium Buffer pH 7.1, n = 36"}, "[6]": {"conditions": "16 mM in Low Sodium Buffer pH 7.1, n = 36"}}, "note": "Several values for one entry are separate records, joined by “and”; a condition that tells them apart may be missing. Equal values may be shown once."}
{"smiles": "O=C(N[C@H]1CO[C@H]2[C@@H]1OC[C@@H]2n1cc(CC2CCCCC2)nn1)C1CC1", "note": "[Example 1, N-((3S,3αR,6S,6αR)-6-(4(cyclohexylmethyl)-1H-1,2,3-triazol-1-yl)-hexahydrofuro[13,2-b]furan-3-yl)cyclopropanecarboxamide]", "values": [{"measurement": "Average Time-to-Max (time to maximum umami intensity)", "setting": "[1]; [2]", "value": 14.9, "unit": "s"}, {"measurement": "average intensity at maximum compared with Sample 1 (12 mM MSG), Tukey's HSD test", "setting": "[1]; 15 ppm (41.62 uM), p<0.05", "value": "significantly more savory"}, {"measurement": "average intensity at maximum compared with Sample 2 (16 mM MSG), Tukey's HSD test", "setting": "[1]; 15 ppm (41.62 uM), p>0.1", "value": "not significantly different"}, {"measurement": "average time to maximum intensity compared with Sample 2 (16 mM MSG), Tukey's HSD test", "setting": "[1]; 15 ppm (41.62 uM), p>0.1", "value": "not significantly different"}, {"measurement": "Average Intensity-at-Max (umami intensity)", "setting": "[1]; [2]", "value": 57}]}
{"smiles": "O=C(CCCC1CCCCC1)N[C@H]1CO[C@H]2[C@@H]1OC[C@@H]2NC(=O)C1CC1", "note": "[Example 29, N-((3S,3αR,6S,6αR)-6-(4cyclohexylbutanamido)hexahydrofuro-[3,2-b]furan-3-yl)cyclopropanecarboxamide]", "values": [{"measurement": "average time to maximum intensity compared with Sample 4 (12 mM MSG) and Sample 5 (16 mM MSG), Tukey's HSD test", "setting": "[1]; 2.5 ppm (6.86 uM)", "value": "not significantly different"}, {"measurement": "Average Time-to-Max (time to maximum umami intensity)", "setting": "[1]; [3]", "value": 18.3, "unit": "s"}, {"measurement": "average intensity at max compared with Sample 4 (12 mM MSG) or Sample 5 (16 mM MSG), Tukey's HSD test", "setting": "[1]; 2.5 ppm (6.86 uM), p>0.1", "value": "not significantly different"}, {"measurement": "Average Intensity-at-Max (umami intensity)", "setting": "[1]; [3]", "value": 57.9}, {"measurement": "melting point", "value": "181.5 to 182.5", "unit": "°C"}]}
{"smiles": "N[C@@H](CCC(=O)O)C(=O)[O-].[Na+]", "note": "[monosodium glutamate, Monosodium Glutamate]", "values": [{"measurement": "Average Time-to-Max (time to maximum umami intensity)", "setting": "[1]; [4]", "value": 15.9, "unit": "s"}, {"measurement": "Average Time-to-Max (time to maximum umami intensity)", "setting": "[1]; [5]", "value": 18.8, "unit": "s"}, {"measurement": "Average Time-to-Max (time to maximum umami intensity)", "setting": "[1]; 16 mM in Low Sodium Buffer pH 7.1, n = 33, listed as Sample 2", "value": "17 s and 17.7 s"}, {"measurement": "Average Time-to-Max (time to maximum umami intensity)", "setting": "[1]; [6]", "value": 16.3, "unit": "s"}, {"measurement": "Average Intensity-at-Max (umami intensity)", "setting": "[1]; [4]", "value": 45.3}, {"measurement": "Average Intensity-at-Max (umami intensity)", "setting": "[1]; [5]", "value": 49.8}, {"measurement": "Average Intensity-at-Max (umami intensity)", "setting": "[1]; 16 mM in Low Sodium Buffer pH 7.1, n = 33", "value": 53.8}, {"measurement": "Average Intensity-at-Max (umami intensity)", "setting": "[1]; [6]", "value": 62.9}, {"measurement": "functional response in the FLIPR assay", "setting": "un-induced I-17 cells", "value": "do not show any functional response"}]}
